Converted amounts (≈) assume the structure as drawn. Like-named read-outs stand apart in the source and are kept apart here. Where no end group is shown, it is not given here.
Tests used:
[1] = tested on: ASEC strains (drug-resistant E. coli, ASEC 1 to 19); experiment: MIC, microdilution, summary over clinical isolates; assay type: cell-based; settings: Escherichia coli; cefotaxime and ceftazidime: 'mostly showed no activity'
Experimental: (§1) Bacterial cells were cultured at 37°C in the appropriate culture media with shaking (180 rpm). Luria-Bertani broth (LB) (244620; BD Difco) was used for E. coli ATCC 25922, ASEC strains, and B. subtilis KCTC 2217. Nutrient broth (NB) (234000; BD Difco) was used for P. aeruginosa ATCC 27853, S. Typhimurium KCTC 1926, and A. baumannii KCTC 2508. Tryptic soy broth (TSB) (211825; BD Difco) was used for S. aureus ATCC 25923. Finally, brain heart infusion (BHI) (237500; BD Difco) was used for L. monocytogenes KCTC 3710. The antimicrobial activity of each peptide was determined using microdilution assays. To this end, 2-fold serial dilution series of each peptide (from 1 to 64 μM) were added to duplicate media with 10 mM sodium phosphate buffer (pH 7.4). Fifty microliters of the peptide and antibiotic solution was added to each well of a 96-well plate (32096, surface nontreatment; SPL Life Sciences). Then, 50 μL of 2 × 10^5 CFU mL^−1 of bacteria was added to each well, and the samples were incubated for 18 to 24 h without shaking at 37°C.

[2] = tested on: MDR E. coli ASEC 5; parameters: method as in Asan hospital; key to susceptibility category: S: susceptible; R: resistant; I: intermediate; settings: ref Asan hospital, cited from earlier work; for MIC: ASEC 5 (ESBL), resistance information of clinical isolate; for susceptibility category: ASEC 5
[3] = tested on: MDR E. coli ASEC 14; parameters: method as in Asan hospital; key to susceptibility category: S: susceptible; R: resistant; I: intermediate; settings: ref Asan hospital, cited from earlier work; for MIC: ASEC 14 (AmpC), resistance information of clinical isolate; for susceptibility category: ASEC 14
[4] = tested on: E. coli ATCC 25922; experiment: microbe, parasite or virus in culture; assay type: cell-based, Escherichia coli; settings: for MIC: Escherichia coli
Experimental: (§2) E. coli ATCC 25922 cells were incubated overnight at 37°C in LB medium with shaking (180 rpm) and then adjusted to 2 × 10^5 CFU mL^−1; 0.5× MIC of PN5 and antibiotics were added to the medium and cultured overnight at 37°C with aeration (180 rpm). The MIC was determined by measuring the OD600 using a Versa Max microplate reader. On the next day, to measure the MIC with the bacteria grown after treatment with 0.5× MIC, the bacteria and antibiotic were adjusted to the same concentration, and the bacteria were cultured by adding 0.5× MIC in the same manner. The initial culture was continuously cultured for 25 passages in this manner.

[5] = tested on: E. coli – Ceftazidime (Passage 25); experiment: microbe, parasite or virus in culture; assay type: cell-based, Escherichia coli
Experimental: as §2

[6] = tested on: E. coli – Meropenem (Passage 25); experiment: microbe, parasite or virus in culture; assay type: cell-based, Escherichia coli
Experimental: as §2

[7] = tested on: P. aeruginosa ATCC 27853; assay type: cell-based, Pseudomonas aeruginosa; settings: microdilution, NB, 18 to 24 h, 37°C, three independent experiments
Experimental: as §1

[8] = tested on: B. subtilis KCTC 2217; assay type: cell-based, Bacillus subtilis; settings: microdilution, LB, 18 to 24 h, 37°C, three independent experiments
Experimental: as §1

[9] = tested on: L. monocytogenes KCTC 3710; assay type: cell-based, Listeria monocytogenes; settings: microdilution, BHI, 18 to 24 h, 37°C, three independent experiments
Experimental: as §1

[10] = tested on: mouse red blood cells; experiment: Hemolytic activity; assay type: cell-based; settings: 200 μM; 8% mouse red blood cells, 1 h, 37°C
Experimental: RAW 264.7 cells (mouse macrophage cells) were maintained in high-glucose Dulbecco’s modified Eagle medium (DMEM) (Welgene, Daegu, South Korea) supplemented with 10% fetal bovine serum (FBS) (Gibco) and 1% penicillin at 37°C in humidified 5% CO2. Cells (2 × 10^5 cells well^−1) were seeded into DMEM supplemented with 10% FBS medium in a 96-well plate. The MTT assay was performed after culturing the cells in 96-well plates at a density of 2 × 10^5 cells well^−1, followed by treatment with serially diluted PN5, magainin 2, and melittin. After 24 h, the medium was discarded, and 100 μL DMEM and 10% FBS medium containing 0.5 mg mL^−1 MTT were added to each well. After 4 h of incubation, the medium was discarded and dimethyl sulfoxide was added to each well to solubilize the formazan. The optical densities at 570 and 650 nm (OD570 and OD650, respectively) of the treated cells were compared to those of control cells. The hemolytic activity of the peptides was evaluated as the release of hemoglobin from an 8% mRBC suspension. A 100-μL aliquot of the 8% mRBC suspension was added to the wells of a 96-well plate, and 100 μL of peptide solution in phosphate-buffered saline (PBS) was added at a final peptide concentration of 200 μM. After incubation for 1 h at 37°C with shaking (50 rpm), the suspensions were centrifuged at 1,000 × g for 5 min. The absorbance of the supernatant was measured at 414 nm using a Versa Max microplate reader (Molecular Devices). As a control, no hemolysis and complete hemolysis were determined in PBS and 0.1% Triton X-100, respectively. The degree of hemolysis was calculated using the following equation as described in reference: %hemolysis=[(A414withpeptide-A414withPBS)/(A414with0.1%TritonX-100-A414 with PBS)] × 100

[11] = tested on: RAW 264.7 cells; experiment: IncuCyte Cytotox green time-dependent cytotoxicity; assay type: cell-based, mouse; settings: 200 μM, 24 h
Experimental: An IncuCyte cytotoxicity assay (Essen BioScience, Inc., Ann Arbor, MI, USA) was performed to evaluate time-dependent cytotoxicity. RAW 264.7 cells (2 × 10^5 cells well^−1) were seeded into 96-well culture plates and then treated with peptides and IncuCyte Cytotox green reagent (Essen BioScience, Inc.). Up to 200 μM PN5 and 25 μM melittin were used to treat RAW 264.7 cells, with the concentrations serially diluted by half. […] The cells were stained with IncuCyte Cytotox green reagent. The viability was measured using IncuCyte software (Essen BioScience, Inc.) ([56]).

[12] = E. coli ATCC 25922 passaged with 0.5× MIC of the same agent
[13] = ATCC25922, read-out: MIC after 25 passages
[14] = ATCC25922, read-out: MIC at passage 1
[15] = Escherichia coli, read-out: MIC, value in parentheses

Row | Molecule | MIC [1] [µM] | MIC [2] | susceptibility category [2] | MIC [3] [mg/L] | susceptibility category [3] | fold increase of MIC after 25 passages [4, 12] [fold] | MIC [4, 13] [µM] | MIC [4, 14] [µM] | MIC ([5]; Escherichia coli, ATCC25922) [µM] | MIC [5, 15] [µM] | MIC ([6]; Escherichia coli, ATCC25922) [µM] | MIC [6, 15] [µM] | MIC [7] [µM] | MIC [8] [µM] | MIC [9] [µM] | hemolysis [10] | cytotoxicity, Cytotox green fluorescence [11] | MIC after 25 passages [4, 12] [µM] | MIC ([5]; E. coli ATCC 25922 with resistance induced by ceftazidime, passage 25, three independent experiments) [µM] | MIC ([6]; E. coli ATCC 25922 with resistance induced by meropenem, passage 25, three independent experiments) [µM]
1 | CO/N=C(\C(=O)N[C@@H]1C(=O)N2C(C(=O)O)=C(COC(C)=O)CS[C@H]12)c1csc(N)n1 [Cefotaxime] | > 32 | > 32 mg/L | R | > 32 | R | – | – | – | – | – | – | – | – | – | – | – | – | – | – | –
2 | CC(C)(O/N=C(\C(=O)N[C@@H]1C(=O)N2C(C(=O)[O-])=C(C[n+]3ccccc3)CS[C@H]12)c1csc(N)n1)C(=O)O [Ceftazidime] | > 32 | > 16 mg/L | R | > 16 | R | 512 | 128 (≈ 70 µg/mL) | 0.25 (≈ 0.137 µg/mL) | 128 (≈ 70 µg/mL) | 0.25 (≈ 0.137 µg/mL) | 0.25 (≈ 0.137 µg/mL) | 0.25 (≈ 0.137 µg/mL) | – | – | – | – | – | – | – | –
3 | C[C@@H](O)[C@H]1C(=O)N2C(C(=O)O)=C(S[C@@H]3CN[C@H](C(=O)N(C)C)C3)[C@H](C)[C@H]12 [Meropenem] | – | <= 4 μg mL-1 | S | 8 (≈ 20.9 µM) | R | 8 | 0.25 (≈ 0.0959 µg/mL) | 0.0312 (≈ 0.012 µg/mL) | 0.0312 (≈ 0.012 µg/mL) | 0.0312 (≈ 0.012 µg/mL) | 0.25 (≈ 0.0959 µg/mL) | 0.0312 (≈ 0.012 µg/mL) | – | – | – | – | – | – | – | –
4 | FKFLARTGKFL-NH2 [PN5] | – | – | – | – | – | – | – | – | – | – | – | – | 4 | 4 | 16 | did not induce hemolysis | no toxicity | 16 | 16 | 16
